As a reminder, the Ki is a dissociation constant, usually derived from enzyme kinetics or from competition with a known ligand.

SMILES strings stand for the structures.

In assay [1] the target is T1, Adrenergic receptor alpha-2 (Homo sapiens, UniProt P08913+P18825+P18089).
T1 sequence (P08913 whole entry): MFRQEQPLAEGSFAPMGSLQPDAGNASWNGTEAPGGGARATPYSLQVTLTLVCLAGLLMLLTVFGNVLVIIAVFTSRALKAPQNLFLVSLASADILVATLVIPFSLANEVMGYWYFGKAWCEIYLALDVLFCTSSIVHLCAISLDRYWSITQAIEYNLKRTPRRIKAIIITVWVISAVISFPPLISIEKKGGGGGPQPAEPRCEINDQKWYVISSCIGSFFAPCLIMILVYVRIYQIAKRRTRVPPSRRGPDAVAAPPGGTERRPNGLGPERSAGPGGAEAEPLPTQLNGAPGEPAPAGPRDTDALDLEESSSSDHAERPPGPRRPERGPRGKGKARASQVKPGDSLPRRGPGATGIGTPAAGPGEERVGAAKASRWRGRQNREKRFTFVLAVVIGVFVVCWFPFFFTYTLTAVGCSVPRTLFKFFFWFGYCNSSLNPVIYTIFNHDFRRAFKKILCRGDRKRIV
T1 sequence (P18825 whole entry): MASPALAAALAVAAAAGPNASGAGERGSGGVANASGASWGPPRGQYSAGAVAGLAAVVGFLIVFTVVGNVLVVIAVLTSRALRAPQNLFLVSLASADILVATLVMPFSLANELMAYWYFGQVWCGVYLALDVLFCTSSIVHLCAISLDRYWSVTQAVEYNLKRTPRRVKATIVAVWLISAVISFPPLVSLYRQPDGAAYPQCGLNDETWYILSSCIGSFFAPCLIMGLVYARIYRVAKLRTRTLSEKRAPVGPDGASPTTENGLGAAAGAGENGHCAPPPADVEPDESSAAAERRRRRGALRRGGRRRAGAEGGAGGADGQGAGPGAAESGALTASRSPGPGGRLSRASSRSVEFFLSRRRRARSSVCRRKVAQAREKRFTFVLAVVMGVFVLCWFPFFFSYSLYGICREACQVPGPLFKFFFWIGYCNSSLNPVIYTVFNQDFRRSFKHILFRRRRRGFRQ
T1 sequence (P18089 whole entry): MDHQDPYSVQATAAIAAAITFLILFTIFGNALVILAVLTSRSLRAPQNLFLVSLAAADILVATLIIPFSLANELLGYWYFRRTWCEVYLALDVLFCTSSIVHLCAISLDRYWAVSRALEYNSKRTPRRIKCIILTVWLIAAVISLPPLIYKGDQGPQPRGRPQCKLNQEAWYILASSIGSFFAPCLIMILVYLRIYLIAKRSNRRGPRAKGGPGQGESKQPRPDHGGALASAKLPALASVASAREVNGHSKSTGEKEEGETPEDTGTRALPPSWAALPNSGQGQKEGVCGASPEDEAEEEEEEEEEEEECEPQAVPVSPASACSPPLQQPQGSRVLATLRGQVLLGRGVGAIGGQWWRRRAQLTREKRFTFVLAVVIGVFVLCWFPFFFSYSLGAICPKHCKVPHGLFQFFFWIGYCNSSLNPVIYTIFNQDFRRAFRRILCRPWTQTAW
Kind of assay: Binding affinity towards alpha 2 adrenergic receptor. It counts as protein assay, Canis lupus familiaris.

Assay [2] deals with T2, Adrenergic receptor alpha-1 (Homo sapiens, UniProt P35348+P25100+P35368).
T2 sequence (P35348 whole entry): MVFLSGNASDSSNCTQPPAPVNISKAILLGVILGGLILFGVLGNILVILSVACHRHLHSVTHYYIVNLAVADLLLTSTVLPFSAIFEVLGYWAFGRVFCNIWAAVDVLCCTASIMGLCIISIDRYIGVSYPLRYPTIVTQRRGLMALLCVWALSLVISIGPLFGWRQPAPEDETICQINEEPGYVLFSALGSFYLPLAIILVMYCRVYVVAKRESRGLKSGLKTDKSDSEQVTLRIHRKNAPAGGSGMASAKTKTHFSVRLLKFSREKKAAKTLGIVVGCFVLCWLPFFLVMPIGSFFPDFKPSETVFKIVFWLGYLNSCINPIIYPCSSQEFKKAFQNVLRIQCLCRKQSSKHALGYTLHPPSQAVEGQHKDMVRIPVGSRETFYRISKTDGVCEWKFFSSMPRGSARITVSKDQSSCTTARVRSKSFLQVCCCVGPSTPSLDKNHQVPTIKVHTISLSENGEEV
T2 sequence (P25100 whole entry): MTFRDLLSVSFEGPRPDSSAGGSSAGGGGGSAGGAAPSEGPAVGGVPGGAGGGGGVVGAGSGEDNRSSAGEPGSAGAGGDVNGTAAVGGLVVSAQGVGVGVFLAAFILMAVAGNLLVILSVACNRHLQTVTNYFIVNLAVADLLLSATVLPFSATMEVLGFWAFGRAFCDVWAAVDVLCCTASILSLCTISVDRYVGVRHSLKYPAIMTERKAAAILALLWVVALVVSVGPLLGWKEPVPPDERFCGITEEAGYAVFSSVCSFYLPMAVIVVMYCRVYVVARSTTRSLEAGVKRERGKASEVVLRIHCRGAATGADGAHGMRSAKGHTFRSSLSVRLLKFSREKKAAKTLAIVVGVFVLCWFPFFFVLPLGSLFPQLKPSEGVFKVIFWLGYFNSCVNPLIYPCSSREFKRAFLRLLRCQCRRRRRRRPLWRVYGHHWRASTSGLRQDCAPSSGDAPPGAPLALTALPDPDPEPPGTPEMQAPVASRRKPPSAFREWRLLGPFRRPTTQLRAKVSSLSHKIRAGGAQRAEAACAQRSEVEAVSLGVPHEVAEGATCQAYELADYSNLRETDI
T2 sequence (P35368 whole entry): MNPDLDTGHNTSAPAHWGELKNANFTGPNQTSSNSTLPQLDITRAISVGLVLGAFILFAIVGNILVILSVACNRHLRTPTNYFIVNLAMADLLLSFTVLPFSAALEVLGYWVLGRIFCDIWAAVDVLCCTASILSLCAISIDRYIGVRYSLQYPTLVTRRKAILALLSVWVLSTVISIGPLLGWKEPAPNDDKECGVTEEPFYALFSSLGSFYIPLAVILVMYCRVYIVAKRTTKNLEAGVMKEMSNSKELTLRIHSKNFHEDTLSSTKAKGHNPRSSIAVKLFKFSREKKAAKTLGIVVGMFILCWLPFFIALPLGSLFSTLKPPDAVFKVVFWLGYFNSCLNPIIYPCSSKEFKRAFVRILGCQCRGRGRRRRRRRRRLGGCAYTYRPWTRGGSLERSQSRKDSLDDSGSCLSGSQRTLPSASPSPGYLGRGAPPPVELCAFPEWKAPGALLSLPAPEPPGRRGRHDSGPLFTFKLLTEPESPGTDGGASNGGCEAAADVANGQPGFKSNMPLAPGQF
Kind of assay: Binding affinity towards alpha 1 adrenergic receptor. Type of assay: protein assay, Oryctolagus cuniculus.

The target in assay [3] is T3, Adrenergic receptor alpha (Homo sapiens) (UniProt P35348+P08913+P18825+P25100+P35368+P18089). Kind of assay: Ratio of Ki of alpha-1 to Ki of alpha-2 adrenoceptor. It counts as protein assay.
Assay [4] concerns the target Adrenergic receptor alpha-2 (Homo sapiens) (UniProt P08913+P18825+P18089). Kind of assay: In vitro alpha 2 adrenergic activity uin phenozybenzamine pretreated dog saphenous vein expressed as percent maximum response of the tissue to norepinephrine. It counts as functional, tissue-based. The following applies: Canis lupus familiaris.
The target in assay [5] is Adrenergic receptor alpha-1 (Homo sapiens) (UniProt P35348+P25100+P35368). Kind of assay: In vitro alpha 1 adrenergic activity using isolated rabbit aorta expressed as percent maximum response of the tissue to norepinephrine. It counts as functional, tissue-based. The following applies: Oryctolagus cuniculus.
For assay [6], the target named is T3, Adrenergic receptor alpha (Homo sapiens). Kind of assay: In vitro alpha-2 selectivity which is the measure of Ratio of Ki of alpha-1 adrenoceptor to Ki of alpha-2 adrenoceptor. Type of assay: protein assay.
Assay [7] is described as follows: Ratio of ED50 of NE to ED50 of CPD from PBZ-pretreated dog alpha-2 adrenoceptor.
Assay [8] in a line: Ratio of ED50 of NE to ED50 of CPD from Rabbit aorta alpha-1 adrenoceptor. Type of assay: tissue-based.

In the case of `CCCN(CCC)CC1CCc2c1ccc(O)c2O` (stereo not given), the Ki in assay [1] amounted to 470 nM; in assay [2], 7400 nM. In addition, the Ratio in assay [3] came to 16.

`NCC1CCc2cc(O)c(O)cc21` (stereo not given): the results for the Ki in assay [1] and in assay [2] were 520 nM and 26000 nM, respectively. For the same compound, in assay [3], the Ratio was determined as 50.

As for `NCC1OCc2cc(O)c(O)cc21` (stereo not given), the Ki in assay [1] was found to be 13000 nM; in assay [2], 99000 nM. Moreover, the Ratio in assay [3] was determined as 9.7.

On to `CCCN(CCC)CC1OCc2c1ccc(O)c2O` (stereo not given), for which the Ki was determined as 670 nM in assay [1] and 10300 nM in assay [2]. Besides, the Ratio in assay [3] was found to be 15.

With `CNCC1CCc2c1ccc(O)c2O` (stereo not given), the Emax in assay [4] came out at 81; in assay [5] it was 109. The Ki in assay [1] amounted to 7 nM; in assay [2], 2000 nM. For the same compound, the Ratio is 110 in assay [6], 323 in assay [3], 29.6 in assay [7] and 0.27 in assay [8].

Regarding `NCC1CCc2c1ccc(O)c2O` (stereo not given), the values for the Emax in assay [4] and in assay [5] were 91 and 102, respectively. For the same compound, the Ki in assay [1] was 15 nM; in assay [2], 2250 nM. Moreover, the Ratio was found to be 209 in assay [6], 145 in assay [3], 3.55 in assay [7] and 0.017 in assay [8].

For `CNCC1OCc2c1ccc(O)c2O` (stereo not given), the Emax in assay [4] was 94; in assay [5] it was 126. Also, the Ki was 18 nM in assay [1] and 1970 nM in assay [2]. Moreover, the Ratio in assay [6] worked out at 5.3; in assay [3], 112; in assay [7], 1.69; in assay [8] it was 0.32.

As to `CN(C)CC1OCc2c1ccc(O)c2O` (stereo not given), the Emax came to 107 in assay [4] and 114 in assay [5]. Moreover, the figures for the Ki in assay [1] and in assay [2] were 10.7 nM and 1160 nM, respectively. The Ratio came to 4 in assay [6], 109 in assay [3], 4 in assay [7] and 1 in assay [8].

For `NCC1OCc2c1ccc(O)c2O` (stereo not given), the values for the Emax in assay [4] and in assay [5] were 90 and 107, respectively. For the same compound, the Ki is 77 nM in assay [1] and 9800 nM in assay [2]. The Ratio worked out at 36.3 in assay [6], 127 in assay [3], 1.45 in assay [7] and 0.04 in assay [8].

For the compound `CN(C)CC1CCc2c1ccc(O)c2O` (stereo not given), the figures for the Emax in assay [4] and in assay [5] were 101 and 105, respectively. Also, the Ki in assay [1] is on record as 25 nM; in assay [2], 6900 nM. Moreover, the Ratio in assay [6] is 7.6; in assay [3], 276; in assay [7], 2.05; in assay [8], 0.27.

Source of the values: ChEMBL document CHEMBL1123666, “Conformationally defined adrenergic agents. 4. 1-(aminomethyl)phthalans: synthesis and pharmacological consequences of the phthalan ring oxygen atom” (J Med Chem, 1987).
